Measured values: patent EP4782008A1 (priority 2023, dated 2025)

Tests used:
[1] = background statement; cited from earlier work
[2] = background statement; cited from earlier work; remark: listed apart in the source
hERG = hERG (Homo sapiens, UniProt Q12809); conditions: background statement; cited from earlier work
[3] = Pharmacokinetics following single oral administration; type: in vivo, healthy Chinese subjects; conditions: for AUC(0-inf) / peak plasma drug concentration: empty stomach
Procedure: Trial design: single-center, randomized, double-blind, placebo-controlled, dose-escalation, single administration. Number of subjects: Planned enrollment: 52 subjects, Final analysis: 51 subjects.
• Specifications: 0.5 mg/tablet, 1 mg/tablet, 2 mg/tablet, prepared according to the method of Example 1; • Dose: 0.5 mg, 1 mg, 2 mg, 4 mg, 8 mg, 12 mg. • Administration method: Single-dose, taken with an appropriate amount of water (240 mL).
Evaluation indicators of pharmacokinetic parameters: Time to peak (Tmax), peak concentration (Cmax), area under the plasma concentration time curve from 0 to t (AUC0-t), area under the plasma concentration time curve from 0 to infinity (AUC0-∞), elimination rate constant (λz), half-life period (t1/2), total clearance/bioavailability (CL/F), apparent volume of distribution/bioavailability (Vd/F).
Pharmacokinetic analysis: Pharmacokinetic parameters were calculated using the non-compartmental analysis (NCA) and Phoenix WinNonlin 7.0 data analysis software. Descriptive statistical analysis was performed on pharmacokinetic parameters, providing the number of subjects, arithmetic mean, standard deviation, minimum, median, maximum, and coefficient of variation (CV). Tmax was expressed as median (minimum - maximum). AUC and Cmax belong to a log-normal distribution. The geometric mean was also provided. The relationship between administered dose and drug plasma exposure was evaluated by plotting scatter plots of log-transformed pharmacokinetic parameters (AUC and Cmax) in relation to log dose. Furthermore, the Power model method was used to further explore the linear analysis of administered dose and drug plasma exposure.
A single dose of the tablets of the compound of formula (I) was administered orally to healthy volunteers on empty stomach. […] When the administered doses were 1 mg, 2 mg, 4 mg, 8 mg, and 12 mg, the peak plasma drug concentrations were 1.19 ng/mL, 2.43 ng/mL, 8.61 ng/mL, 16.4 ng/mL, and 23.5 ng/mL, respectively, and the AUC0-∞ were 14.7 h·ng/mL, 29.8 h·ng/mL, 69.4 h·ng/mL, 135 h·ng/mL, and 220 h·ng/mL, respectively. […] Within the dose range of 1 mg-12 mg, Cmax and AUC0-∞ increased with increasing administered dose, and the increase ratio in AUC0-∞ was basically consistent with the dose increase ratio. The inter-individual variability of plasma drug exposure is around 30%.

[4] = background statement; cited from earlier work; remark: listed apart in the source

Chain of hERG (Q12809 whole entry): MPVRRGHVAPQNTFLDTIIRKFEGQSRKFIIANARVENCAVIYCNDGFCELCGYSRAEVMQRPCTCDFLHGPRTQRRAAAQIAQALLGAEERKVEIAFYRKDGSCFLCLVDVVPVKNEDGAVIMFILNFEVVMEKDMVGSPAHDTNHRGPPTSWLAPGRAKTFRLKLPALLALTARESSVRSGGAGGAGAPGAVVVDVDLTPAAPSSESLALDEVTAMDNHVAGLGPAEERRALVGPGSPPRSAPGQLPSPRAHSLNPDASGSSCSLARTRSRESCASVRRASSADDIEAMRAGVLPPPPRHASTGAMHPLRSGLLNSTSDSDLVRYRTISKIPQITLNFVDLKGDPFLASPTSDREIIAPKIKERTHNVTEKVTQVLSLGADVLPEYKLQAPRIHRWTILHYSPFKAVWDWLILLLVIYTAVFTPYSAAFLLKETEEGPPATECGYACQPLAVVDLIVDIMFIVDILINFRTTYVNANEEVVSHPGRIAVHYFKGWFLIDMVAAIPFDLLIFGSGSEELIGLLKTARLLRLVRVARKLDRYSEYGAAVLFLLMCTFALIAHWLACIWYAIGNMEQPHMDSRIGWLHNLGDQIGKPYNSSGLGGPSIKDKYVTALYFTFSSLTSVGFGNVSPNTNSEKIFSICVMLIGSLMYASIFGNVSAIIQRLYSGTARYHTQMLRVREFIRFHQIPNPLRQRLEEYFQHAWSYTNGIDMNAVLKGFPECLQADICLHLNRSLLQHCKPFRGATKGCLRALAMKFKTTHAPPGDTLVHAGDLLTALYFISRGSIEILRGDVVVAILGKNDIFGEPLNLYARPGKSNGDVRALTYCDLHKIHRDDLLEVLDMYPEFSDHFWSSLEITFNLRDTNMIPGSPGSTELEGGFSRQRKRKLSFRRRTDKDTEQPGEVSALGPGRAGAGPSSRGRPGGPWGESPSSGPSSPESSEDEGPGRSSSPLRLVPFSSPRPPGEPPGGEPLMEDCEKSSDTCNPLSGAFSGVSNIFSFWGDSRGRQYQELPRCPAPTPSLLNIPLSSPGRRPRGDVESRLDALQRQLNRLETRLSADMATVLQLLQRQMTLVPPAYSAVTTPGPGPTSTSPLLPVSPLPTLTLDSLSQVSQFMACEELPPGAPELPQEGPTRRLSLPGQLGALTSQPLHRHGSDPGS

What does the source list for COc1cc2c(cc1OC)C(=O)C(CC1(F)CCN(Cc3ccccc3F)CC1)C2 (stereo not shown) [compound of formula (I), 2-(4-fluoro-(1-(2-fluorobenzyl))piperidin-4-yl-methyl)-5,6-dimethoxy-2,3-dihydro-1-indanone]?
genetic toxicity [1]: no; drug concentration in brain tissue relative to the plasma drug concentration [2]: 4.4 times; hERG toxicity (hERG): no; AUC(0-inf) ([3]; human, plasma, single oral dose 1 mg): 14.7 ng·h/mL; AUC(0-inf) ([3]; human, plasma, single oral dose 2 mg): 29.8 ng·h/mL; AUC(0-inf) ([3]; human, plasma, single oral dose 4 mg): 69.4 ng·h/mL; AUC(0-inf) ([3]; human, plasma, single oral dose 8 mg): 135 ng·h/mL; AUC(0-inf) ([3]; human, plasma, single oral dose 12 mg): 220 ng·h/mL; half-life ([3]; human, plasma, single oral dose of tablets on empty stomach, range over dose groups, read-out: mean plasma drug elimination half-life period): 852 to 1930 min; inter-individual variability of plasma drug exposure ([3]; single oral dose): around 30%; peak plasma drug concentration ([3]; single oral dose 1 mg): 1.19 ng/mL; peak plasma drug concentration ([3]; single oral dose 2 mg): 2.43 ng/mL; peak plasma drug concentration ([3]; single oral dose 4 mg): 8.61 ng/mL; peak plasma drug concentration ([3]; single oral dose 8 mg): 16.4 ng/mL; peak plasma drug concentration ([3]; single oral dose 12 mg): 23.5 ng/mL; oral bioavailability [4]: high
